Measured values reported in patent US9078851B2, “Composition for preventing or treating a spinal cord injury” (UNIVERSITY-INDUSTRY COOPERATION GROUP OF KYUNG HEE, priority 2009, dated 2015).

Key:
Type in all cases: in vivo, rat
[1] = system: myelin sheath of nerve cell; test: Immunofluorescence staining of myelin base protein (MBP) after spinal cord injury
Description: (§1) For the present experiment, male white mice (Sprague-Dawley 240-250 g, 7 weeks, 10 mice) were under general anesthetics by an intraperitoneal injection of Ketamin (80 mg/kg, Yuhan Corporation) and Rompun (7.4 mg/kg, Bayer Korea Corporation). Laminectomy was performed at spine T9-10 level to expose a spinal cord keeping intact dura. And then, rat was put on Spinal cord dropping device (NYU); spine processes at T8 and T11 sites were fixed by using a clamp, respectively; then, a rod (diameter 2 mm, weight 10 g) was dropped from 25 mm height vertical to dorsal part of spinal cord followed by suturing injury site muscle and skin. The rat of Sham-operated control group was performed only laminectomy at same area without damaging spinal cord injury (marked by ‘sham” in figures; hereinafter, the same as above).
(§2) Substance P (marked by ‘SP’ in figures; hereinafter, the same as above) dissolved in saline of 5 nmol/kg concentration was injected through tail vein at immediately, 24 hours, and 48 hours after a spinal cord injury for experimental groups. At sham control group, same volume of saline (marked by ‘vehicle’ in figures; hereinafter, the same as above) without Substance P was injected at same time points. Operation were performed on an electric heating pad of 37° C., and then rat were transferred to cage after awake from the anesthetic. • (2) Preparation of Tissue […]

[2] = system: TNF-α, IL-1β, IL-6, iNOS, IL-10 mRNA at spinal cord injury site; test: RT-PCR analysis of cytokine mRNA in injured spinal cord; settings: 5 nmol/kg tail vein
Description: as §1
Substance P (marked by ‘SP’ in figures; hereinafter, the same as above) dissolved in saline of 5 nmol/kg concentration was injected through tail vein at immediately, 24 hours, and 48 hours after a spinal cord injury for experimental groups. At sham control group, same volume of saline (marked by ‘vehicle’ in figures; hereinafter, the same as above) without Substance P was injected at same time points. Operation were performed on an electric heating pad of 37° C., and then rat were transferred to cage after awake from the anesthetic. • (2) Preparation of Tissue
Substance P (5 nmol/kg in saline) or saline (the same volume without Substance P) was injected through tail vein at various time points at immediately, 1 d, 2d after operation as (1) of Example 1. At 1 hour, 6 hours, 1 day, 3 days, and 5 days, the experimental group (6 rats/group) and the control (6 rats/group) were sacrificed, respectively. After exposing a spinal cord by laminectomy, spin cord with a length of 1 cm, the injury site between T9-10 as the central, was quickly cut off, and immediately put into liquid nitrogen. Total RNA was extracted by using Trizol reagent (Invitrogen), and the cDNA was synthesized through Reverse transcription process. Then, PCR (Chromagen) was performed using primers of TNF-α IL-1β iNOS. Primer's sequences and PCR conditions were as follows.

[3] = system: activated microglia/macrophage; test: Immunofluorescence staining of ED1 at spinal cord injury site; settings: 5 nmol/kg tail vein at immediately, 24 h, 48 h after spinal cord injury; 5 days after operation; vs control, rostal to caudal area
Description: as §1, §2

spinal cord injury = test: Ethologic change test, BBB locomotor rating scale after spinal cord injury
Description: For the present experiment, male white mice (Sprague-Dawley 240-250 g, 7 weeks, 10 mice) were under general anesthetics by an intraperitoneal injection of Ketamin (80 mg/kg, Yuhan Corporation) and Rompun (7.4 mg/kg, Bayer Korea Corporation). Laminectomy was performed at spine T9-10 level to expose a spinal cord keeping intact dura. And then, rat was put on Spinal cord dropping device (NYU); spine processes at T8 and T11 sites were fixed by using a clamp, respectively; then, a rod (diameter 2 mm, weight 10 g) was dropped from 25 mm height vertical to dorsal part of spinal cord followed by suturing injury site muscle and skin. The rat of Sham-operated control group was performed only laminectomy at same area without damaging spinal cord injury (marked by ‘sham” in figures; hereinafter, the same as above). Substance P (marked by ‘SP’ in figures; hereinafter, the same as above) dissolved in saline of 5 nmol/kg concentration was injected through tail vein at immediately, 24 hours, and 48 hours after a spinal cord injury for experimental groups. At sham control group, same volume of saline (marked by ‘vehicle’ in figures; hereinafter, the same as above) without Substance P was injected at same time points. Operation were performed on an electric heating pad of 37° C., and then rat were transferred to cage after awake from the anesthetic. • (2) Preparation of Tissue An ethologic change test was performed as follows: an experimental animal was put to a large basin having soft and non-smooth bottom (Width 90 cm×Length 130 cm×Height 30 cm); then body's balance states and moving states of hind-leg's coxalgic pelvis, knee joint, and ankle joint were observed when freely walking; then it was converted into a score based on Basso-Bresnahan-Beattie (BBB) locomotor rating scale (Basso et al., 1995); and then four researchers performed a blind technique. Substance P or saline was injected to a tail vein of rat, respectively at immediately, 1 d, 2 d after a spinal cord injury, using the same method as (1) of Example 1. And then, for the experimental group (10 rats/group) and the control (9 rats/group), an ethologic change due to a spinal cord injury was observed and estimated for different periods, such as after injuring, 1 week, 2 weeks, 3 weeks, 4 weeks, 5 weeks, […], and 6 weeks. A mean value of scores (BBB scores) observed by four researchers was taken, and the results thereof were statistically analyzed. The statistical analysis was performed in a method of two-way ANOVA with post hoc Tukey test.

[4] = 1 hour after spinal cord injury, vs control

Substance P
inhibition of tissue lose ([1]; at 2 mm rostal and caudal from the center): at least 50%
MBP-positive sheath ([1]; tail vein injection, after spinal cord injury): well preserved
expression of IL-1β mRNA [2, 4]: slightly decreased
expression of IL-6 mRNA [2, 4]: slightly decreased
expression of TNF-α mRNA [2, 4]: slightly decreased
expression of iNOS mRNA [2, 4]: slightly decreased
increase of expression of IL-10 mRNA ([2]; 6 hours after spinal cord injury, vs control): at least 17 times
expression of iNOS ([2]; one day after spinal cord injury): surely decreased
expressions of inflammatory cytokines (TNF-α, IL-1β, IL-6, iNOS mRNAs) ([2]; other times than 1 hour, between two groups): do not have a difference
expression of IL-10 mRNA ([2]; up to 3 day after spinal cord injury, vs control): persist increasing level
activated microglia/macrophage expressing ED1 antigen [3]: significantly decreased
motor skill (spinal cord injury; from 14 days, vs control): meaningful improved
motor skill (spinal cord injury; from about 5 weeks, vs control): meaningfully recovered and improved
spinal cord nerve function (spinal cord injury; from about one week after administrating, vs control): beginning to recover
BBB score (spinal cord injury; tail vein injection at immediately, 1 d, 2 d after injury, at 6 weeks, P<0.05 vs control): 11.5±0.5
